Calls of active or inactive are those of the source. The calls are words filed in the database; no cut-off is given here.
Columns and labels:
[1] = tested on: DV-90; assay: Induction of cell cycle arrest in human DV-90 cells assessed as accumulation of cells at G0/G1 phase at 0.5 uM for 24 hrs by Click-iT EdU Alexa Fluor 647 flow cytometric assay kit analysis (reference value: 47%); type: functional
[2] = tested on: NCI-H1373; assay: Induction of apoptosis in human NCI-H1373 cells assessed as early apoptotic cells at 2.5 uM for 24 hrs by annexin V-PI staining based flow cytometric analysis (reference value: 1.7%); type: functional
[3] = tested on: A549; assay: Induction of apoptosis in human A549 cells assessed as early apoptotic cells at 2.5 uM for 24 hrs by annexin V-PI staining based flow cytometric analysis (reference value: 0.2%); type: functional
[4] = tested on: DV-90; assay: Induction of cell cycle arrest in human DV-90 cells assessed as accumulation of cells at G0/G1 phase at 0.5 uM for 24 hrs by Click-iT EdU Alexa Fluor 647 flow cytometric assay kit analysis (reference value: 45%); type: functional
[5] = tested on: NCI-H460; assay: Induction of cell cycle arrest in human NCI-H460 cells assessed as accumulation of cells at G0/G1 phase at 1 uM for 24 hrs by Click-iT EdU Alexa Fluor 647 flow cytometric assay kit analysis (reference value: 45%); type: functional
[6] = tested on: NCI-H1373; assay: Induction of cell cycle arrest in human NCI-H1373 cells assessed as accumulation of cells at G0/G1 phase at 0.25 uM for 24 hrs by Click-iT EdU Alexa Fluor 647 flow cytometric assay kit analysis (reference value: 45%); type: functional
[7] = tested on: DV-90; assay: Induction of cell cycle arrest in human DV-90 cells assessed as accumulation of cells at G0/G1 phase at 0.25 uM for 24 hrs by Click-iT EdU Alexa Fluor 647 flow cytometric assay kit analysis (reference value: 45%); type: functional
[8] = tested on: A549; assay: Induction of apoptosis in human A549 cells assessed as viable cells at 1 uM by annexin V-PI based flow cytometric analysis (reference value: 95.7%); type: functional; conditions: read-out: Activity
[9] = tested on: NCI-H1373; assay: Induction of TRAIL dependent apoptosis in human NCI-H1373 cells assessed as necrotic cells at 1 uM by annexin V-PI staining based flow cytometric analysis (reference value: 3.6%); type: functional
[10] = tested on: DV-90; assay: Induction of cell cycle arrest in human DV-90 cells assessed as accumulation of cells at G2/M phase at 0.1 uM for 24 hrs by Click-iT EdU Alexa Fluor 647 flow cytometric assay kit analysis (reference value: 24%); type: functional
[11] = tested on: A549; assay: Induction of cell cycle arrest in human A549 cells assessed as accumulation of cells at G2/M phase at 0.5 uM for 24 hrs by Click-iT EdU Alexa Fluor 647 flow cytometric assay kit analysis (reference value: 3%); type: functional
[12] = tested on: DV-90; assay: Induction of apoptosis in human DV-90 cells assessed as early apoptotic cells at 0.5 uM for 24 hrs by annexin V-PI staining based flow cytometric analysis (reference value: 1.7%); type: functional
[13] = tested on: A549; assay: Induction of apoptosis in human A549 cells assessed as late apoptotic cells at 0.5 uM for 24 hrs by annexin V-PI staining based flow cytometric analysis (reference value: 2.3%); type: functional
[14] = tested on: NCI-H460; assay: Downregulation of FLIP mRNA expression level in human NCI-H460 cells at 0.1 to 1 uM for 24 hrs by qRT-PCR analysis; type: functional, cell-based; conditions: dose 0.1-1 µM
[15] = tested on: NCI-H2347; assay: Downregulation of c-MYC protein expression level in human NCI-H2347 cells at 1 uM for 24 hrs by […] analysis; type: functional, cell-based
[16] = tested on: DV-90; assay: Induction of apoptosis in human DV-90 cells assessed as early apoptotic cells at 2.5 uM for 24 hrs by annexin V-PI staining based flow cytometric analysis (reference value: 1.7%); type: functional
[17] = tested on: SK-LU-1; assay: Downregulation of c-MYC protein expression level in human SK-LU-1 cells at 1 uM for 24 hrs by […] analysis; type: functional, cell-based
[18] = Toxicity in SCID mouse xenografted with human NCI-H1373 cells assessed as body weight loss at 50 mg/kg, ip measured on after 15 days relative to control; type: organism-based; conditions: in vivo, 360 h, time 15 day
[19] = tested on: DV-90; assay: Induction of cell cycle arrest in human DV-90 cells assessed as accumulation of cells at G0/G1 phase at 0.5 uM for 24 hrs by Click-iT EdU Alexa Fluor 647 flow cytometric assay kit analysis (reference value: 44%); type: functional
[20] = tested on: NCI-H441; assay: Downregulation of c-MYC protein expression level in human NCI-H441 cells at 1 uM for 24 hrs by […] analysis; type: functional, cell-based

With `Cc1sc2c(c1C)C(c1ccc(Cl)cc1)=N[C@@H](CC(=O)Nc1ccc(O)cc1)c1nnc(C)n1-2` [BIRABRESIB] the Activity [1] was 56%, the Activity [2] was 1.8% and the Activity [3] was 0.1%.

Work on `CCNC(=O)C[C@@H]1N=C(c2ccc(Cl)cc2)c2cc(OC)ccc2-n2c(C)nnc21` [MOLIBRESIB] yielded an Activity [4] of 47%, an Activity [5] of 52% and an Activity [6] of 49%. For the same compound, the Activity [7] was 49%.

`Cc1sc2c(c1C)C(c1ccc(Cl)cc1)=N[C@@H](CC(=O)OC(C)(C)C)c1nnc(C)n1-2` gave a viability at 1 µM [8] of 98%, an Activity [9] of 19.1% and an Activity [10] of 31%. For the same compound, the Activity [11] was 3%, the Activity [12] was 2.6% and the Activity [13] was 1.5%. The Activity [14] was “Active”, the Activity [15] was “Active” and the Activity [16] was 1.9%. The Activity [17] was “Active”, the Activity [18] was 5% and the Activity [19] was 51%. For the same compound, the Activity [20] was “Active”.

Source: ChEMBL document CHEMBL5712891, “Inhibition of BET bromodomain-dependent XIAP and FLIP expression sensitizes KRAS-mutated NSCLC to pro-apoptotic agents” (Cell Death Dis, 2016)
